Starred links: 1 amine or outer side, 2 acyl side, 3 side chain; linkers in the order of their positions; H or OH if unused. Positions of bridges follow the written chain, without caps; N, C: chain ends. Non-standard residues stand in square brackets, D forms with d. Residues, ends and D or L forms follow the SMILES beside them. Groups on a side chain read outwards from the residue. *: point of attachment. Trp(1-Me) = Cn1cc(C[C@H](N)C(=O)O)c2ccccc21; C16 diacid = O=C(O)CCCCCCCCCCCCCCC(=O)*; γGlu = O=C(O)[C@H](CCC(=O)[*:2])N[*:1]; AEEA = NCCOCCOCC(=O)O; Sar = CNCC(=O)O
Experiments:
[1] = Solubility test at 10 mg/mL (visual inspection and light scattering); assay type: physicochemical; settings: for Solubility, Condition 1 Acetate pH 4: 10 mg/mL compound in 100 mM acetate pH 4; for Solubility, Condition 2 Acetate pH 5: 10 mg/mL compound in 100 mM acetate pH 5; for Solubility, Condition 3 Phosphate pH 6: 10 mg/mL compound in 100 mM phosphate pH 6; for Solubility, Condition 4 Phosphate pH 7: 10 mg/mL compound in 100 mM phosphate pH 7; for Solubility, Condition 5 Phosphate pH 7.5: 10 mg/mL compound in 100 mM phosphate pH 7.5
[2] = system: classical complement pathway; assay: In vitro haemolysis assay (inhibition of classical complement pathway); assay type: cell-based, human; settings: Table 3; human serum, sensitized sheep red blood cells; read-out: IC50[nM], in vitro analysis of inhibition of hemolysis
How it was run: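 Serially diluted compound (9 points) was preincubated 15 min at room temperature with diluted human serum, titrated per batch to give 70-90% maximal haemolysis, in Tris/casein buffer pH 7.4 with Mg2+/Ca2+. Antibody-sensitized sheep erythrocytes were then added for 30 min at 37° C, and the reaction was stopped with EDTA. Haemolysis was read at A405, with IC50 from 4PL fit.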

Row | SMILES | Solubility, Condition 1 Acetate pH 4 [1] | Solubility, Condition 2 Acetate pH 5 [1] | Solubility, Condition 3 Phosphate pH 6 [1] | Solubility, Condition 4 Phosphate pH 7 [1] | Solubility, Condition 5 Phosphate pH 7.5 [1] | IC50 [2] [nM]
1 | CC[C@H](C)[C@H](NC(=O)[C@H](C)NC(=O)[C@H](CO)NC(=O)CNC(C)=O)C(=O)N[C@H]1CSSC[C@@H](C(=O)N(C)CC(=O)N[C@@H](CCC(=O)O)C(N)=O)NC(=O)[C@H](CCCNC(=N)N)NC(=O)[C@H](Cc2c[nH]cn2)NC(=O)[C@H](CCC(=O)O)NC(=O)CNC(=O)[C@H](Cc2c[nH]c3ccccc23)NC(=O)[C@H](CC(=O)O)NC(=O)[C@H](CCC(N)=O)NC(=O)[C@H](Cc2c[nH]c3ccccc23)NC(=O)[C@H]([C@@H](C)CC)NC1=O [Compound 40] (Ac-GSAICIWQDWGEHRC[Sar]E-NH2; disulfide 5-15) | − (denotes lack of solubility at the given condition, as UV absorbance at 340 nm exceeds 0.1 AU and/or it is visibly turbid or contains particles.) | − (denotes lack of solubility at the given condition, as UV absorbance at 340 nm exceeds 0.1 AU and/or it is visibly turbid or contains particles.) | + (denotes solubility at the given condition, as determined by UV absorbance being less than 0.1 AU at 340 nm and the sample being clear when manually inspected.) | + (denotes solubility at the given condition, as determined by UV absorbance being less than 0.1 AU at 340 nm and the sample being clear when manually inspected.) | + (denotes solubility at the given condition, as determined by UV absorbance being less than 0.1 AU at 340 nm and the sample being clear when manually inspected.) | < 250
2 | CC[C@H](C)[C@@H]1NC(=O)[C@@H](NC(=O)[C@H](Cc2ccc(O)cc2)NC(=O)[C@H](C)NC(=O)[C@H](CO)NC(=O)CNC(=O)[C@H](CCC(=O)O)NC(C)=O)CSSC[C@@H](C(=O)N(C)CC(=O)N[C@@H](CCC(=O)O)C(N)=O)NC(=O)[C@H](CCCCNC(=O)COCCOCCNC(=O)COCCOCCNC(=O)CC[C@H](NC(=O)CCCCCCCCCCCCCCC(=O)O)C(=O)O)NC(=O)[C@H](Cc2c[nH]cn2)NC(=O)[C@H](CCC(=O)O)NC(=O)CNC(=O)[C@H](Cc2c[nH]c3ccccc23)NC(=O)[C@H](CC(=O)O)NC(=O)[C@H](CCC(N)=O)NC(=O)[C@H](Cc2cn(C)c3ccccc23)NC1=O [Compound 103, Ac-EGSAYC(1)I[1-Me-Trp]QDWGEH-[K([15-carboxy-pentadecanoyl][γGlu][Peg3][Peg3])]-C(1)[Sar]E-NH2] (Ac-EGSAYCI[Trp(1-Me)]QDWGEHK([AEEA-AEEA-γGlu-C16 diacid])C[Sar]E-NH2; disulfide 6-16) | − (denotes lack of solubility at the given condition, as UV absorbance at 340 nm exceeds 0.1 AU and/or it is visibly turbid or contains particles.) | + (denotes solubility at the given condition, as determined by UV absorbance being less than 0.1 AU at 340 nm and the sample being clear when manually inspected.) | + (denotes solubility at the given condition, as determined by UV absorbance being less than 0.1 AU at 340 nm and the sample being clear when manually inspected.) | + (denotes solubility at the given condition, as determined by UV absorbance being less than 0.1 AU at 340 nm and the sample being clear when manually inspected.) | + (denotes solubility at the given condition, as determined by UV absorbance being less than 0.1 AU at 340 nm and the sample being clear when manually inspected.) | < 100
3 | CC[C@H](C)[C@@H]1NC(=O)[C@@H](NC(=O)[C@@H](NC(=O)[C@H](CCC(=O)O)NC(=O)[C@H](CO)NC(=O)[C@H](CCC(=O)O)NC(C)=O)[C@@H](C)CC)CSSC[C@@H](C(=O)N[C@@H](CCC(=O)O)C(=O)NCC(=O)N[C@@H](CCC(=O)O)C(N)=O)NC(=O)[C@H](CCCNC(=N)N)NC(=O)[C@H](Cc2c[nH]cn2)NC(=O)[C@H](CCC(=O)O)NC(=O)CNC(=O)[C@H](Cc2c[nH]c3ccccc23)NC(=O)[C@H](CC(=O)O)NC(=O)[C@H](CCC(N)=O)NC(=O)[C@H](Cc2c[nH]c3ccccc23)NC1=O [Compound 36] (Ac-ESEICIWQDWGEHRCEGE-NH2; disulfide 5-15) | − (denotes lack of solubility at the given condition, as UV absorbance at 340 nm exceeds 0.1 AU and/or it is visibly turbid or contains particles.) | − (denotes lack of solubility at the given condition, as UV absorbance at 340 nm exceeds 0.1 AU and/or it is visibly turbid or contains particles.) | − (denotes lack of solubility at the given condition, as UV absorbance at 340 nm exceeds 0.1 AU and/or it is visibly turbid or contains particles.) | + (denotes solubility at the given condition, as determined by UV absorbance being less than 0.1 AU at 340 nm and the sample being clear when manually inspected.) | + (denotes solubility at the given condition, as determined by UV absorbance being less than 0.1 AU at 340 nm and the sample being clear when manually inspected.) | < 250
4 | CC[C@H](C)[C@@H]1NC(=O)[C@@H](NC(=O)[C@H](Cc2ccccc2)NC(=O)[C@H](CCC(=O)O)NC(=O)[C@H](CO)NC(C)=O)CSSC[C@@H](C(=O)N(C)CC(=O)N[C@@H](CCC(=O)O)C(N)=O)NC(=O)[C@H](CCCNC(=N)N)NC(=O)[C@H](Cc2c[nH]cn2)NC(=O)[C@H](CCC(=O)O)NC(=O)CN(C)C(=O)[C@H](Cc2c[nH]c3ccccc23)NC(=O)[C@H](CC(=O)O)NC(=O)[C@H](CCC(N)=O)NC(=O)[C@H](Cc2cn(C)c3ccccc23)NC1=O [Compound 79, Ac-SEFC(1)I[1-Me-Trp]QDW[Sar]EHRC(1)[Sar]E-NH2] (Ac-SEFCI[Trp(1-Me)]QDW[Sar]EHRC[Sar]E-NH2; disulfide 4-14) | − (denotes lack of solubility at the given condition, as UV absorbance at 340 nm exceeds 0.1 AU and/or it is visibly turbid or contains particles.) | − (denotes lack of solubility at the given condition, as UV absorbance at 340 nm exceeds 0.1 AU and/or it is visibly turbid or contains particles.) | + (denotes solubility at the given condition, as determined by UV absorbance being less than 0.1 AU at 340 nm and the sample being clear when manually inspected.) | + (denotes solubility at the given condition, as determined by UV absorbance being less than 0.1 AU at 340 nm and the sample being clear when manually inspected.) | + (denotes solubility at the given condition, as determined by UV absorbance being less than 0.1 AU at 340 nm and the sample being clear when manually inspected.) | < 100
